Among the data in patent publication US6521567B2, “Herbicidal composition” (priority 2001, dated 2003) are Herbicidal activity values, retold here.

This assay has as its system common cocklebur. The assay is described as follows: Test Example 4: field spray, herbicidal activity (flumiclorac-pentyl). In kind it is in vivo, Xanthium strumarium. The following applies: index 0-100; common cocklebur height about 65 cm; 100 g/hectare alone; 1000 liters per hectare spray; after 4 days. The procedure:
The herbicidal effect is evaluated with indices of 0 to 100 at intervals of 5, wherein “0” means that there was no or little difference in the degree of germination or growth between the treated plants and the untreated plants at the time of examination, “100” means that the test plants died completely.
Ten (10) parts of flumiclorac-pentyl were dissolved in 80 parts of xylene, after adding 10 parts of Sorpol 3005X (produced by Toho Chemical), the solution was well stirred and mixed to give 10% emulsifiable concentrate of flumiclorac-pentyl. From the aqueous dilution of said 10% emulsifiable concentrate of flumiclorac-pentyl, with a aqueous dilution of 25% emulsifiable concentrate of thiometon (commercial name: Ekatin EC, produced by Sankyo), 45% emulsifiable concentrate of oxydeprofos (commercial name: Estox EC, produced by Nihon Bayer Agrochem) or 50% emulsifiable concentrate of fenthion (commercial name: baycid EC, produced by Nihon Bayer Agrochem), prepared each aqueous dilution of the prescribed concentration of the present formulation.
Their aqueous dilution of the present formulation, with 1000 liters per hectare, were sprayed over a place in the field where common cocklebur (the height: about 65 cm) were growing. After 4 days from the application, the herbicidal activity were examined.

Regarding `CCCCCOC(=O)COc1cc(N2C(=O)C3=C(CCCC3)C2=O)c(F)cc1Cl` [flumiclorac-pentyl, pentyl[2-chloro-5-(cyclohex-1-ene-1,2-dicarboximido)-4-fluorophenoxy]acetate], the Herbicidal activity came to 30.
